Results on six compounds are retold here after article PMC12206033, “Selective inhibition of TRPV3 channel by natural rosmarinic acid and its analogs for alleviation of skin lesions through downregulation of NF-κB pathway” (The Journal of Biological Chemistry, 2025).

Series [1] in a line: CCK-8 cell viability assay. In kind it is cell-based. As to conditions: human, HEK293T cells expressing hTRPV3, Car 300 μM for 1 h, read-out: cell viability rate, Car alone. The protocol: For cell viability assay, hTRPV3-HEK293T cells were seeded in 96-well plates for 12 to 16 h before exposed to Car in DMEM containing 2% fetal bovine serum for 1 h. TRPV3 and NF-κB inhibitors were added 1 h before the addition of Car. After removing the medium containing chemical compounds, hTRPV3-HEK293T cells were incubated with DMEM containing 10% CCK-8 (TargetMol) for 1 h. Cell viability was then assessed using the Sunrise microplate reader under the light absorbance at 450 nm (TECAN, CH).
For orientation: Formazan colour is commonly taken as a measure of viable cells.

Series [2] relates to HEK293T cells expressing hTRPV3. Kind of series: Hoechst 33342/propidium iodide double staining cell death assay. In kind it is cell-based. The protocol: For cell death assay, HEK293T cells transfected with hTRPV3 were seeded in 6-well plates and randomly divided into different groups. TRPV3 and NF-κB inhibitors were added 1 h before the addition of Car. After administration of Car for 1 h, cell death was detected using Hoechst 33342/propidium iodide Double Stain Kit (Solarbio). After staining, cells were resuspended with PBS buffer. Five random view images in each group were taken under a microscope (Eclipse Ti, Nikon) and counted using ImageJ software (National Institutes of Health).

Series [3] addresses T1, hTRPV3 (Homo sapiens, UniProt Q8NET8).
T1 construct: expressed in transfected cells; host or cells: HEK293T
T1 sequence (Q8NET8 1-790): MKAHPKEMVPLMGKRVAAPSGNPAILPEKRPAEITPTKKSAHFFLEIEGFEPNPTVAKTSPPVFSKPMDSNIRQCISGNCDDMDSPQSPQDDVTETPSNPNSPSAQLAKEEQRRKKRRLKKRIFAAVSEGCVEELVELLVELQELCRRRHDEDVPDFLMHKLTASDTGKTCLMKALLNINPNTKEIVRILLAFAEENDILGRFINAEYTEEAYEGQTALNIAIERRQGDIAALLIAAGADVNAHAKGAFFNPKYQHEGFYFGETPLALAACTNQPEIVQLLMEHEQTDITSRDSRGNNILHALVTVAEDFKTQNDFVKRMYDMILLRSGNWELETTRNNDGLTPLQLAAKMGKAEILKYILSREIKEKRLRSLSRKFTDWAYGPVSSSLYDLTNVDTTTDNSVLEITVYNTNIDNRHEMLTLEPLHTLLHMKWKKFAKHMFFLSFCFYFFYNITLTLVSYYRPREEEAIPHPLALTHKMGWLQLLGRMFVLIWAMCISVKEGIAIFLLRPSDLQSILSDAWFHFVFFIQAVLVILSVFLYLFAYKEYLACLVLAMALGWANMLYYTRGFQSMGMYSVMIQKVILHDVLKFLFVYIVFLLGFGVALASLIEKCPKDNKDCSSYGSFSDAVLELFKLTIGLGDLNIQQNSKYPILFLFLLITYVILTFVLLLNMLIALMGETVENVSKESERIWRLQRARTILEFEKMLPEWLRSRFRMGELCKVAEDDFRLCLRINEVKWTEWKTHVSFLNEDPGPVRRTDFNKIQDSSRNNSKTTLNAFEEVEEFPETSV
The series is described as follows: single-channel inside-out patch recordings of hTRPV3 in HEK293T cells. Format: cell-based. The settings on record: 2-APB 50 μM or Car 300 μM alone, n = 5. Here is the method:
HEK293T cell line was obtained from the Cell Resource Center, Peking Union Medical College. HEK293T cells were maintained in Dulbecco’s modified Eagle’s medium (DMEM, Gibco) supplemented with 10% fetal bovine serum at 37 °C with 5% CO2. HEK293T cells were seeded onto glass coverslips 1 day in advance and transiently transfected with […] complementary deoxyribonucleic acids of human TRPV3 (hTRPV3, accession number NM_145068.4), hTRPV1 (accession number NM_080704.3), mTRPV2 (accession number NM_011706.2), hTRPV4 (accession number NM_021625.5), hTRPA1 (accession number NM_007332.3), and hTRPM8 (accession number NM_024080.5) through Lipofectamine 2000 (Invitrogen) following the manufacture’s protocol. The next day, determine the plasmid transfection status by observing green fluorescence based on expression of enhanced GFP as an indicator. […] As for the relative fluorescence intensity, we convert the image to 8 bit grayscale using ImageJ (Https://imagej.net/software/fiji/downloads) and set an appropriate threshold value to reduce background noise and enhance the image contrast.
(§1) All patch-clamp recordings were conducted 16 to 24 h after transfection using an EPC10 amplifier powered by PatchMaster software (HEKA) (https://www.heka.com/downloads/downloads_main.html#down_patchmaster) at room temperature. The borosilicate glass pipettes were pulled using a DMZ universal electrode puller (Zeitz-Instruments GmbH) to achieve the resistances of three to 5 MΩ (for whole-cell recordings) or five to 9 MΩ (for inside-out patch recordings). Currents were recorded at a potential ramp from −100 mV to +100 mV for 1000 ms with 1000-ms intervals (for whole-cell recordings) or a persistent potential of −60 mV (inside-out patch recordings). Both pipette solution and bath solution contained (in mM): 130 NaCl, 3 Hepes, and 0.2 EDTA (pH = 7.2–7.4). All recording data were analyzed using Igor Pro (Wave-metrics) (https://www.wavemetrics.com/order/order_igordownloads.htm) and Origin 8.6 (Origin Lab) (https://www.originlab.com/doc/zh/Quick-Help/Download-Installer).

For series [4], the system named is Car-induced ear swelling and dorsal skin inflammation in mice. Kind of series: mouse model of ear swelling and dorsal skin inflammation induced by skin sensitizer Car (3%). In kind it is in vivo. An excerpt: Adult C57BL/6J mice (aged 6–8 weeks, weighing 20 ± 2 g) were purchased from the Beijing Vital River Laboratory Animal Technology Co. Ltd. TRPV3-KO mice were purchased from Cyagen Biosciences Inc. All mice were housed in plastic cages with natural poplar wood bedding materials, accommodating three to five mice per cage. The housing environment was maintained at a controlled room temperature of (23 ± 2) °C and humidity of (50 ± 5) %, with 12-h light/dark cycle (lights on at 7:00 AM and off at 7:00 PM). Mice had free access to food and water. All animal test protocols were approved by the Institutional Animal Care and Use Committee of Qingdao University Health Science Center and were conducted in accordance with institutional and national guidelines for the use and care of animals in experiments. All mice were anesthetized with isoflurane (1%–1.5%) using an isoflurane gas anesthesia device and were euthanized under anesthesia.
(§2) Skin sensitizer Car was dissolved in saline solution containing 30% ethanol. The dorsal skin or ear of mice was swabbed with 3% Car for four consecutive days. To investigate the effects of ROSA, it was diluted to concentration of 0.1/1/10 mM with saline and topically applied on the ear and dorsal skin once a day for 4 days. The control group only received swabs with the solvent.

Series [5] concerns TRPV3, IL-6, TNF-α, and p-P65 protein expressions. The series is described as follows: Western blot of TRPV3 and NF-κB pathway proteins in mouse ear tissues. In kind it is in vivo. As to conditions: mouse ear tissues treated with 3% Car; day 5. The protocol:
as §2
Skin or ear skin tissues were homogenized in radioimmunoprecipitation assay buffer (Thermo Fisher Scientific) containing protease inhibitors at a ratio of 100:1 per 10 mg tissue and centrifuged at 15,000 rpm for 15 min. The protein concentration was quantified using a bicinchoninic acid kit (Thermo Fisher Scientific), followed by SDS-PAGE for Western blot analysis. Protein transfer was performed at 150 mA for 90 min, and the transferred membranes (Millipore) were incubated with primary antibodies (TRPV3 antibody, 1:1000, TNF-α antibody, 1:1000, IL-6 antibody, 1:2500, P65 antibody, 1:1000 and p-P65 antibody, 1:1000) in 5% skim milk (Becton, Dickinson and Company). […] Images were quantified using the Image Lab software (https://www.bio-rad.com/zh-cn/product/image-lab-software?ID=KRE6P5E8Z).

Series [6] deals with HEK293T cells expressing G573S-TRPV3. The series is described as follows: green fluorescence of live HEK293T cells transfected with gain-of-function mutant GFP-TRPV3-G573S. Format: cell-based, human. As to conditions: compound 20 μM. The protocol:
HEK293T cell line was obtained from the Cell Resource Center, Peking Union Medical College. HEK293T cells were maintained in Dulbecco’s modified Eagle’s medium (DMEM, Gibco) supplemented with 10% fetal bovine serum at 37 °C with 5% CO2. HEK293T cells were seeded onto glass coverslips 1 day in advance and transiently transfected with […] complementary deoxyribonucleic acids of human TRPV3 (hTRPV3, accession number NM_145068.4), hTRPV1 (accession number NM_080704.3), mTRPV2 (accession number NM_011706.2), hTRPV4 (accession number NM_021625.5), hTRPA1 (accession number NM_007332.3), and hTRPM8 (accession number NM_024080.5) through Lipofectamine 2000 (Invitrogen) following the manufacture’s protocol. The next day, determine the plasmid transfection status by observing green fluorescence based on expression of enhanced GFP as an indicator. […] When conducting experiments on HEK293T cells transfected with G573S point mutant TRPV3 plasmid, we replaced culture medium with or without compounds after 4 h of transfection and then observed green fluorescence of HEK293T cell after 10 h. As for the relative fluorescence intensity, we convert the image to 8 bit grayscale using ImageJ (Https://imagej.net/software/fiji/downloads) and set an appropriate threshold value to reduce background noise and enhance the image contrast.

For series [7], the target named is T1, hTRPV3. Kind of series: whole-cell patch-clamp of hTRPV3 currents in HEK293T cells activated by 2-APB. Format: cell-based. The settings on record: for inhibition at 50 µM: HEK-293T, compound 50 μM, agonist 2-APB 50 μM, Fig. 3I, n = 4-5, read-out: inhibition of hTRPV3 currents; for IC50: evoked by 2-APB 50 μM, outward currents at +80 mV, HEK293T, Fig. 3J, n = 5-7, read-out: IC50, inhibition of whole-cell hTRPV3 currents. The protocol: HEK293T cell line was obtained from the Cell Resource Center, Peking Union Medical College. HEK293T cells were maintained in Dulbecco’s modified Eagle’s medium (DMEM, Gibco) supplemented with 10% fetal bovine serum at 37 °C with 5% CO2. HEK293T cells were seeded onto glass coverslips 1 day in advance and transiently transfected with […] complementary deoxyribonucleic acids of human TRPV3 (hTRPV3, accession number NM_145068.4), hTRPV1 (accession number NM_080704.3), mTRPV2 (accession number NM_011706.2), hTRPV4 (accession number NM_021625.5), hTRPA1 (accession number NM_007332.3), and hTRPM8 (accession number NM_024080.5) through Lipofectamine 2000 (Invitrogen) following the manufacture’s protocol. The next day, determine the plasmid transfection status by observing green fluorescence based on expression of enhanced GFP as an indicator. All WT or mutant hTRPV3 complementary deoxyribonucleic acid plasmids were confirmed by DNA sequencing. When conducting experiments on HEK293T cells transfected with G573S point mutant TRPV3 plasmid, we replaced culture medium with or without compounds after 4 h of transfection and then observed green fluorescence of HEK293T cell after 10 h. As for the relative fluorescence intensity, we convert the image to 8 bit grayscale using ImageJ (Https://imagej.net/software/fiji/downloads) and set an appropriate threshold value to reduce background noise and enhance the image contrast.
as §1
Background: The patch-clamp technique gives a direct electrical read-out from membranes.

Another series deals with NF-κB p-P65. As to conditions: no reference given; read-out: IC50 of NF-κB p-P65 inhibitor; cited from earlier work.
Where [8] appears, read: inhibitor 20 μM added 1 h before Car 300 μM.
[9] abbreviates: topical JSH-23 20 μM in 100 μl coapplied with Car for consecutive 4 days, mouse dorsal skin.

Usually viability stands for a per cent measure of how many cells are alive, often set against a control. As to `Cc1ccc(C(C)C)cc1O` [Car, carvacrol, reference compound], the viability at 1 h, 300 μM in series [1] was found to be 72%. The “cell death ratio, Car alone” value in series [2] (Car 300 μM for 1 h, vehicle control 8%) was 30%. Moreover, the “single-channel open probability, agonist alone” value at hTRPV3 [3] was 0.77 ± 0.09. The “ear skin inflammation, thickness and ear swelling scores, Car alone” value in series [4] (topical Car for consecutive 4 days, WT mice) was “ear skin inflammation with significantly increased thickness and ear swelling scores”. In addition, the “protein expressions of TRPV3, IL-6, TNF-α, and p-P65, Car alone” value in series [5] was “upregulated”.
Turning to `N.N.N.N.N.N.N.N.N.N.N.N.N.N.[Cl-].[Cl-].[Cl-].[Cl-].[Cl-].[Cl-].[O-2].[O-2].[Ru+3].[Ru+3].[Ru+4]` [RR, ruthenium red], in series [2] (setting [8]), the cell death ratio worked out at 23%. Also, in series [6], the “green fluorescence of live cells” value is given as “robust green fluorescence”.
The term inhibition denotes the share of the control response that was lost under treatment. As a reminder, the IC50 is the concentration needed to halve the response being measured. As for `COC(=O)[C@@H](Cc1ccc(O)c(O)c1)OC(=O)/C=C/c1ccc(O)c(O)c1` [MROSA, methyl rosmarinate], at hTRPV3 [7], the inhibition at 50 µM came to 9 ± 5.2% and the IC50 came to 157 ± 34.5 µM.
For `Cc1ccc(NCCCc2ccccc2)c(N)c1` [JSH-23], the concentration for half-maximal inhibition (IC50) in the series on NF-κB p-P65 is 7.1 µM. In addition, the cell death ratio in series [2] (inhibitor 5 μM added 1 h before Car 300 μM) is 21%. The cell death ratio in series [2] (setting [8]) came to 17%. Further, in series [4] (setting [9]), the dermatitis scores entry is “reduction of dermatitis scores” and the dorsal skin inflammation result was “significant alleviation of the dorsal skin inflammation”. The “green fluorescence of live cells” value in series [6] is listed as “robust green fluorescence”.
As to `NCCOB(c1ccccc1)c1ccccc1` [2-APB, 2-aminoethoxydiphenyl borate, reference compound], the “single-channel open probability, agonist alone” value at hTRPV3 [3] amounted to 0.67 ± 0.05.
On to `O=C(/C=C/c1ccc(O)c(O)c1)NCCc1ccc(O)c(O)c1` [CADA, (E)-3-(3,4-dihydroxyphenyl)-N-(2-(3,4-dihydroxyphenyl)ethyl)-2-propenamide], for which, at hTRPV3 [7], the inhibition at 50 µM is approximately 40.1% and the IC50 stood at 67.7 ± 22.4 µM.
